Results published in patent US20190151625A1, “DRUG DELIVERY APPARATUS AND METHOD” (INNOVENTIONS LTD., priority 2016, published 2019).

Assay: Release of lidocaine dissolved in oil through the silicone balloon wall of device 20
Assay type: physicochemical
Description: Experiments were performed using Lidocaine dissolved in oily substances using two different expansion volumes (one with 10 ml, the other with 16 ml) of the balloon of the device 20.
A. The balloon was expanded by injection of 10 ml of the oily solution into the balloon. A series of 4 experiments using lidocaine dissolved in oil was performed. The results were as follows: • 1. After 28 days—436 mg out of 500 mg was released. • 2. After 29 days—all the 500 mg was released (out of 500 mg). • 3. After 22 days—all the 500 mg was released (out of 500 mg). • 4. After 63 days—all the 1000 mg was released (out of 1000 mg).
B. The balloon was expanded by injection of 16 ml of the oily solution into the balloon. 2 groups and a series of 3 experiments using lidocaine dissolved in oil were performed. The results were as follows: • 1. After 21 days: —all the 500 mg was released (out of 500 mg) • […] was released, out of 1000 mg • 1086 mg was released, out of […] • 2. After 84 days—all the 500 mg was released (out of 500 mg) • all the 1000 mg was released (out of 1000 mg) • all the 1500 mg was released (out of 1500 mg)

CCN(CC)CC(=O)Nc1c(C)cccc1C [Lidocaine]
release through the silicone balloon wall (Lidocaine dissolved in oily substances, balloon expansion volumes 10 ml and 16 ml): released in large quantities
amount released (balloon expanded with 10 ml oily solution, experiment 1, after 28 days, out of 500 mg): 436 mg
amount released (balloon expanded with 10 ml oily solution, experiment 2, after 29 days, out of 500 mg): 500 mg
amount released (balloon expanded with 10 ml oily solution, experiment 3, after 22 days, out of 500 mg): 500 mg
amount released (balloon expanded with 10 ml oily solution, experiment 4, after 63 days, out of 1000 mg): 1000 mg
amount released (balloon expanded with 16 ml oily solution, after 21 days, out of 500 mg): 500 mg
amount released (balloon expanded with 16 ml oily solution, after 21 days, out of 1500 g): 1086 mg
amount released (balloon expanded with 16 ml oily solution, after 84 days, out of 500 mg): 500 mg
amount released (balloon expanded with 16 ml oily solution, after 84 days, out of 1000 mg): 1000 mg
amount released (balloon expanded with 16 ml oily solution, after 84 days, out of 1500 mg): 1500 mg
